Series [1] has as its system TNBS colitis. Description: TNBS colitis treated with CTLA-4-Ig with or without 1-mT: weight, survival, clinical characteristics, histological and morphological scoring. Type of series: in vivo, SJL/J mice.
In series [2] the test system is indoleamine 2,3-dioxygenase mRNA. Description: Real-time PCR of indoleamine 2,3-dioxygenase mRNA in distal colon. Type of series: in vivo, SJL/J mouse. The following applies: TNBS colitis, Day 4; PBS 8 fold.
Source text: (§1) Six week old female SJL/J mice weighing approximately 20 grams, which were maintained at a controlled temperature and light/dark cycle in a pathogen free facility, were anesthetized with an intraperitoneal injection of a 10% Ketamine/Xylazine mixture. […] Mice were sacrificed 4 days after treatment for determination of indoleamine 2,3-dioxygenase protein and mRNA levels.
The subject of series [3] is indoleamine 2,3-dioxygenase protein. The series is described as follows: Western blotting of indoleamine 2,3-dioxygenase protein in distal colon lysates. Type of series: in vivo, mouse. The following applies: four days after TNBS, 1-mT versus placebo. A general note: Immunoblotting shows a protein as a band on a membrane.
Procedure: as §1
Western blotting (Bio-Rad, Hercules, Calif.) for determining indoleamine 2,3-dioxygenase protein amount was performed on whole colon lysates obtained from the distal colons of both control mice and mice treated with Trinitrobenzene Sulfonic Acid. For Lamina Propria Mononuclear cells, 1×10^6 cells were concentrated and loaded per lane. The samples were denatured and separated on an 8% Sodium Dodecyl Sulphate-Polyacrylamide (SDS-PAGE) gel. After electrophoresis, the separated proteins were then transferred to an Immobilon-P Transfer Membrane (Millipore, Be-dford, Mass.). […] The secondary antibodies were donkey anti-rabbit linked to horseradish peroxidase. After probing for indoleamine 2,3-dioxygenase protein, the membranes were stripped and reprobed for β-actin, which was used in addition to the protein assay to ensure equal protein loading.
Western blotting for indoleamine 2,3-dioxygenase was performed as follows. […] The protein was detected using ECL (Amersham). […]
Series [4] has as its system TNFα mRNA. The series is described as follows: Real-time PCR of colonic TNFα mRNA. Type of series: in vivo, mouse. The following applies: TNBS colitis, Day 4; PBS 5 fold. Background: In qPCR the cycle at which signal appears reflects the starting amount.
Series [5] concerns Forkhead box P3 (Foxp3) mRNA. Description: Real-time PCR of colonic Foxp3 mRNA. Type of series: in vivo, mouse. The following applies: Day 4 of TNBS colitis.
The test system of series [6] is lymphocytes in lamina propria lymphoid aggregates. The series is described as follows: BrdU immunohistochemistry of lymphocyte proliferation in lamina propria lymphoid aggregates. It counts as in vivo, mice. The following applies: 4 days and 6 days after TNBS. As to the method:
Lymphocyte proliferation was determined by BrdU labeling of lamina propria lymphoid aggregates of mice treated with Trinitrobenzene Sulfonic Acid enemas plus subcutaneous pellets containing 1-methyl-tryptophan.
BrdU immunohistochemistry was performed to measure cellular proliferation in hypertrophied lymphoid aggregates within the lamina propria of Trinitrobenzene Sulfonic Acid ±1-methyl-tryptophan treated mice. Mice were given rectal Trinitrobenzene Sulfonic Acid and subcutaneous pellets containing 1-methyl-tryptophan or placebo. Groups of mice were sacrificed at 4 days and 6 days after Trinitrobenzene Sulfonic Acid administration. Each mouse received BrdU two hours prior to sacrifice in order to label the S-phase cells. Four micro paraffin sections were prepared from the inflamed colon segments with macroscopically visible hypertrophied colonic patches then labeling was performed as previously described in Riehl, Gasteroenterology, 118: 1106-16, 2000.

Series [7] deals with Trinitrobenzene Sulfonic Acid colitis. The following applies: mouse, in vivo.
For series [8], the system named is interleukin (IL)-2 mRNA. Description: Real-time PCR of colonic IL-2 mRNA. The following applies: 4 days after TNBS.
The test system of series [9] is IL-1 mRNA. The series is described as follows: Real-time PCR of colonic IL-1 mRNA. As to conditions: 4 days after TNBS.
In series [10] the test system is IL-12 mRNA. Description: Real-time PCR of colonic IL-12 mRNA. As to conditions: 4 days after TNBS, Example 5; placebo 20-fold.
Series [11] relates to IFN-γ mRNA. The series is described as follows: Real-time PCR of colonic IFN-γ mRNA.
For series [12], the system named is TGFβ1 mRNA. The series is described as follows: Real-time PCR of colonic TGFβ / TGFβ1 mRNA.
The test system of series [13] is indoleamine 2,3-dioxygenase in lamina propria mononuclear cells. Description: IDO expression in cultured colonic lamina propria mononuclear cells incubated with rIFN-γ and/or LPS. Type of series: cell-based, mouse.

We go through two molecules from US20050238651A1, “Treatment of inflammatory bowel disease” (priority 2003, published 2005).

`Cn1cc(C[C@H](N)C(=O)O)c2ccccc21` [1-mT, 1-methyltryptophan] had a morphological score in series [1] (Day 4 of TNBS, PBS 2.9) of 4.2. Also, the histological score in series [1] (Day 4 of TNBS, PBS 5.4) turned out to be 6.6. Moreover, the “histology of distal colon” value in [1] (TNBS, Day 4) was “more transmural inflammation, loss of tissue architecture and vasculature, and outright necrosis”. This molecule also had a survival rate in series [1] (TNBS, by Day 4, PBS+TNBS 75%) of 62.5%. Further, the “surviving animals with clinical characteristics of active TNBS colitis (hunched, piloerection), number of animals” value in series [1] (TNBS, TNBS+PBS 7/9) was 4/5. The “surviving animals with clinical characteristics of TNBS colitis” value in series [1] (TNBS, TNBS+PBS 78%) is reported as 80%. In series [1] (mouse, in vivo), the “mortality (animals dead of animals treated)” value is 3 of 8 and the mortality rate is recorded as 37%. Besides, the “increase in IDO mRNA expression over controls” value in series [2] was determined as 2 fold. Moreover, the “colonic indoleamine 2,3-dioxygenase protein amount” value in series [3] was “no difference”. Further, in series [4], the “TNFα mRNA induction” value was 16 fold. Also, the “induction of Foxp3 mRNA” value in series [5] is 11 fold. In addition, the “S phase lymphocytes in lymphoid aggregates (BrdU) versus placebo” value in series [6] is recorded as “significantly more S phase lymphocytes”. In series [7], the “effect on colonic morphology” value is on record as “no effect on colonic morphology”, the “gross morphology of colon versus placebo” value was “significant gross morphologic differences”, the “histologic appearance versus placebo” value was “no significant histologic differences” and the “histologic scores versus placebo” value was “significantly higher”. This molecule also gave a survival rate in series [7] of 100%. Also, in series [7] (sc), the “survival at 7 days after Trinitrobenzene Sulfonic Acid administration” value was found to be 20%. For the same molecule, in series [8], the “IL-2 expression versus TNBS and placebo” value is reported as “significantly higher expression by orders of magnitude”. In series [9], the “IL-1 mRNA levels versus TNBS alone” value is reported as “markedly increased”. Further, in series [10], the “IL-12 expression increase over baseline” value came to 120 fold. In [11] (4 days after TNBS, Example 5, placebo 8-fold), the “IFN-γ expression increase over baseline” value amounted to 75 fold. For the same molecule, the “induction of IFN-γ mRNA” value in series [11] (TNBS colitis, Day 4) was determined as 15 fold. The “expression of TGFβ” value in series [12] (4 days after TNBS, Example 5, placebo about half of control) was 1.5 times control values. Also, in series [12] (Day 4 of TNBS colitis), the “TGFβ1 mRNA induction” value is listed as 0.8 fold.

For the molecule “rIFN-γ: recombinant interferon-γ (R&D systems)”, the “indoleamine 2,3-dioxygenase expression after incubation” value in [13] (B220+ enriched lamina propria mononuclear cell population) is given as “did express indoleamine 2,3-dioxygenase after incubation”; in [13] (B220-/MHCII- lamina propria mononuclear cell population), “increased after incubation”; in series [13] (MHCII+/B220- lamina propria mononuclear cell population) it was “further induced”; in series [13] (unfractionated lamina propria mononuclear cells of untreated mice, 30 ng/mL, 24 hours), “marked increase”. For the same molecule, in series [13] (colon lamina propria mononuclear cells from STAT1-/- animals), the “indoleamine 2,3-dioxygenase protein induction” value was “severely blunted indoleamine 2,3-dioxygenase protein induction”. The “indoleamine 2,3-dioxygenase induction” value in series [13] (colonic lamina propria mononuclear cells from C57BL/6 mice, 24 hours) is on record as “increased significantly”. In series [13] (lamina propria mononuclear cells), the “concentration required to maximally increase indoleamine 2,3-dioxygenase protein” value was “less than 1 ng/ml”.
